Source: ChEMBL document CHEMBL1142090, “Substrate competition studies using whole-cell accumulation assays with the major tripartite multidrug efflux pumps of Escherichia coli” (2007)
Active and inactive are the calls of the source. No cut-off for these calls is given here.

Columns and labels:
[1] = system: Escherichia coli; assay: Antibacterial activity against Escherichia coli HNCE4 after 24 hrs; format: functional; conditions: HNCE4, 24 h
[2] = system: Escherichia coli; assay: Antibacterial activity against Escherichia coli AG102 with marR1 mutation after 24 hrs; format: functional; conditions: AG102, 24 h
[3] = system: Escherichia coli; assay: Antibacterial activity against Escherichia coli AG102MB after 24 hrs; format: functional
[4] = system: Escherichia coli; assay: Increase in [3H]testosterone uptake in Escherichia coli AG102MB at 100 uM; format: functional, organism-based
[5] = system: Escherichia coli; assay: Increase in [3H]testosterone uptake in Escherichia coli AG102 at 100 uM; format: functional, organism-based
[6] = system: Escherichia coli; assay: Increase in [3H]testosterone uptake in Escherichia coli HNCE4 at 100 uM; format: functional, organism-based
[7] = system: Escherichia coli; assay: Effect on modulation in uptake of [3H]progesterone in Escherichia coli AG102MB; format: functional, organism-based
[8] = system: Escherichia coli; assay: Effect on modulation in uptake of [3H]progesterone in Escherichia coli HNCE4; format: functional, organism-based
[9] = system: Escherichia coli; assay: Effect on modulation in uptake of [3H]hydrocortisone in Escherichia coli AG102 with marR1 mutation; format: functional, organism-based
[10] = system: Escherichia coli; assay: Effect on modulation in uptake of [3H]testosterone in Escherichia coli AG102 with marR1 mutation; format: functional, organism-based

`CC1(C)S[C@@H]2[C@H](NC(=O)[C@H](N)c3ccccc3)C(=O)N2[C@H]1C(=O)O` [AMPICILLIN] showed an MIC [1] of 16 µg/mL, an MIC [2] of 32 µg/mL and an MIC [3] of 16 µg/mL.

`N#CC(C#N)=NNc1cccc(Cl)c1` [CARBONYL CYANIDE M-CHLOROPHENYLHYDRAZONE] was tested, and the Activity [4] was “Active”, the MIC [1] was 16 µM and the MIC [2] was 128 µM. The Activity [5] was “Active”, the Activity [6] was “Active” and the MIC [3] was 32 µM.

Work on `O=C(N[C@H](CO)[C@H](O)c1ccc([N+](=O)[O-])cc1)C(Cl)Cl` [CHLORAMPHENICOL] yielded an MIC [1] greater than 128 µg/mL, an MIC [2] of 8 µg/mL and an MIC [3] of 2 µg/mL.

With `C[C@H](CCC(=O)O)[C@H]1CC[C@H]2[C@@H]3[C@H](O)C[C@@H]4C[C@H](O)CC[C@]4(C)[C@H]3C[C@H](O)[C@]12C` [CHOLIC ACID] the MIC [1] was 2000 µg/mL, the MIC [2] was 16000 µg/mL and the MIC [3] was 4000 µg/mL.

In the case of `O=C(O)c1cn(C2CC2)c2cc(N3CCNCC3)c(F)cc2c1=O` [CIPROFLOXACIN], the MIC [1] is reported as 0.0625 µg/mL, the MIC [2] is reported as greater than 0.25 µg/mL and the Activity [7] is reported as “Active”. For the same compound, the Activity [8] was “Active” and the MIC [3] was 0.0625 µg/mL.

In the case of `CC[C@H]1OC(=O)[C@H](C)[C@@H](O[C@H]2C[C@@](C)(OC)[C@@H](O)[C@H](C)O2)[C@H](C)[C@@H](O[C@@H]2O[C@H](C)C[C@H](N(C)C)[C@H]2O)[C@](C)(O)C[C@@H](C)[C@@H]2N[C@@H](COCCOC)O[C@H]([C@H]2C)[C@]1(C)O` [DIRITHROMYCIN], the MIC [1] is reported as 16 µg/mL, the MIC [2] is reported as 256 µg/mL and the MIC [3] is reported as 16 µg/mL.

For `CC[C@H]1OC(=O)[C@H](C)[C@@H](O[C@H]2C[C@@](C)(OC)[C@@H](O)[C@H](C)O2)[C@H](C)[C@@H](O[C@@H]2O[C@H](C)C[C@H](N(C)C)[C@H]2O)[C@](C)(O)C[C@@H](C)C(=O)[C@H](C)[C@@H](O)[C@]1(C)O` [ERYTHROMYCIN], the MIC [1] was 8 µg/mL, the MIC [2] was 128 µg/mL and the Activity [7] was “Active”. The Activity [8] was “Active” and the MIC [3] was 4 µg/mL.

With `CC(=O)O[C@H]1C[C@@]2(C)[C@@H](C[C@@H](O)[C@H]3[C@@]4(C)CC[C@@H](O)[C@@H](C)[C@@H]4CC[C@@]32C)/C1=C(\CCC=C(C)C)C(=O)O` [FUSIDIC ACID] the MIC [1] was 128 µg/mL, the MIC [2] was greater than 512 µg/mL and the MIC [3] was 16 µg/mL.

`CN(C)c1ccc(C(=C2C=CC(=[N+](C)C)C=C2)c2ccc(N(C)C)cc2)cc1.[Cl-]` [GENTIAN VIOLET] gave an MIC [1] of 8 µg/mL, an MIC [2] of 32 µg/mL and an MIC [3] of 0.5 µg/mL.

In the case of `CC[n+]1c(-c2ccccc2)c2cc(N)ccc2c2ccc(N)cc21.[Br-]` [HOMIDIUM BROMIDE], the MIC [1] is reported as 32 µg/mL, the MIC [2] is reported as 256 µg/mL and the MIC [3] is reported as 4 µg/mL.

In the case of `CO[C@@H]1[C@@H](O[C@@H]2O[C@H](C)[C@@H](O[C@H]3C[C@@](C)(O)[C@@H](OC(=O)CC(C)C)[C@H](C)O3)[C@H](N(C)C)[C@H]2O)[C@@H](CC=O)C[C@@H](C)[C@@H](O)/C=C/C=C/C[C@@H](C)OC(=O)C[C@H]1OC(C)=O` [JOSAMYCIN], the MIC [1] is reported as 4 µg/mL, the MIC [2] is reported as greater than 512 µg/mL and the MIC [3] is reported as 32 µg/mL.

With `NC[C@H]1O[C@H](O[C@H]2[C@H](O)[C@@H](O[C@H]3O[C@H](CO)[C@@H](O)[C@H](N)[C@H]3O)[C@H](N)C[C@@H]2N)[C@H](O)[C@@H](O)[C@@H]1O` [KANAMYCIN] the MIC [1] was greater than 512 µg/mL, the MIC [2] was 8 µg/mL and the MIC [3] was greater than 512 µg/mL.

`CO[C@@H]1[C@@H](OC(N)=O)[C@@H](O)[C@H](Oc2ccc3c(O)c(NC(=O)c4ccc(O)c(CC=C(C)C)c4)c(=O)oc3c2C)OC1(C)C` [NOVOBIOCIN] showed an MIC [1] of 4 µg/mL, an MIC [2] of 512 µg/mL and an MIC [3] of 4 µg/mL.

`CO[C@H]1C[C@H](O[C@H]2[C@H](C)[C@@H](O[C@@H]3O[C@H](C)C[C@H](N(C)C)[C@H]3O)[C@@H](C)C[C@@]3(CO3)C(=O)[C@H](C)[C@@H](O)[C@@H](C)[C@@H](C)OC(=O)[C@@H]2C)O[C@@H](C)[C@@H]1O` [OLEANDOMYCIN] showed an MIC [1] of 256 µg/mL, an MIC [2] greater than 512 µg/mL and an MIC [3] of 128 µg/mL.

`COC(=O)[C@H]1[C@H]2C[C@@H]3c4[nH]c5cc(OC)ccc5c4CCN3C[C@H]2C[C@@H](OC(=O)c2cc(OC)c(OC)c(OC)c2)[C@@H]1OC` [RESERPINE] gave an MIC [1] of 128 µg/mL, an MIC [2] of 256 µg/mL and an MIC [3] of 128 µg/mL.

For `CC[C@H]1OC(=O)[C@H](C)[C@@H](O[C@H]2C[C@@](C)(OC)[C@@H](O)[C@H](C)O2)[C@H](C)[C@@H](O[C@@H]2O[C@H](C)C[C@H](N(C)C)[C@H]2O)[C@](C)(O)C[C@@H](C)/C(=N\OCOCCOC)[C@H](C)[C@@H](O)[C@]1(C)O` [ROXITHROMYCIN], the MIC [1] was 128 µg/mL, the MIC [2] was 512 µg/mL and the MIC [3] was 64 µg/mL.

With `CCCCCCCCCCCCOS(=O)(=O)[O-].[Na+]` [SODIUM LAURYL SULFATE] the Activity [9] was “Active”, the MIC [1] was 125 µg/mL and the MIC [2] was 1000 µg/mL. For the same compound, the Activity [10] was “Active” and the MIC [3] was 62.5 µg/mL.

With `CN(C)[C@@H]1C(O)=C(C(N)=O)C(=O)[C@@]2(O)C(O)=C3C(=O)c4c(O)cccc4[C@@](C)(O)[C@H]3C[C@@H]12` [TETRACYCLINE] the MIC [1] was 2 µg/mL, the MIC [2] was 8 µg/mL and the MIC [3] was 2 µg/mL.

With `CC[C@H]1OC(=O)C[C@@H](O)[C@H](C)[C@@H](O[C@@H]2O[C@H](C)[C@@H](O[C@H]3C[C@@](C)(O)[C@@H](O)[C@H](C)O3)[C@H](N(C)C)[C@H]2O)[C@@H](CC=O)C[C@@H](C)C(=O)/C=C/C(C)=C/[C@@H]1CO[C@@H]1O[C@H](C)[C@@H](O)[C@@H](OC)[C@H]1OC` [TYLOSIN] the MIC [1] was 64 µg/mL, the MIC [2] was greater than 512 µg/mL and the MIC [3] was 128 µg/mL.
